Columns and labels:
Type in all cases: cell-based
[1] = test system: OVISE cell line; experiment: Drug and growth-inhibitor assay (Cell Titer-Glo cell viability), OVISE; conditions: for effect on cell growth: concentration 0.1 g/ml to […], alone
Procedure: (§1) Cysplatin (CDDP, Randa, molecular weight, 300.5 Da) was purchased from Nippon Kayaku (Tokyo, Japan). Propargylglycine (PPG, molecular weight, 113.11 Da), a specific inhibitor of CTH, was purchased from Sigma-Aldrich. OVISE, OVTOKO, and OVCAR-3 were seeded into opaque-walled 96-well plates in a concentration of 1×10^4 cells/well on the day before adding the drugs. CDDP solution of various concentrations (0, 0.02, 0.1, 0.5, 2.5, and 12.5 µg/ml) was then added to the wells in duplicate. In the following, PPG dissolved in water ([…]) was added. 96 hours after addition of the drugs, cell viability was quantified using the Cell Titer-Glo Luminescent Cell Viability Assay (Promega, Madison, Wis.). Luminescence activity was measured with a GloMAx96 Microplate Luminometer (Promega).
(§2) The protein expression of CTH was examined in 9 ovarian cancer cell lines by western blot analysis. Among all the ovarian cell lines, CTH expression was only observed in OVISE and OVTOKO (FIG. 5E). […] There was a positive correlation between protein expression of CTH and IC50 of CDDP in ovarian cancer cell lines (FIG. 5 F-H). The IC50s of propargylglycine, a specific inhibitor of CTH, were also analyzed in these cell lines. Propargylglycine at a concentration ranging from […] to 10 µg/ml had no effect on cell growth of these cell lines. Thus, combination of CDDP and propargylglycine (FIG. 5 I-K) was also examined.

[2] = test system: OVTOKO cell line; experiment: Drug and growth-inhibitor assay (Cell Titer-Glo cell viability), OVTOKO; conditions: for effect on cell growth: concentration 0.1 g/ml to […], alone
Procedure: as §1, §2

[3] = test system: OVCAR3 cell line; experiment: Drug and growth-inhibitor assay (Cell Titer-Glo cell viability), OVCAR3; conditions: concentration 0.1 g/ml to […], alone
Procedure: as §1
as §2, with “Thus, combination of CDDP and propargylglycine (FIG. 5 I-K) was also examined.” left out

[4] = […] propargylglycine in culture medium, versus medium without PPG

| Structure (SMILES) | change of IC50 of CDDP in combination with propargylglycine [1, 4] | change of IC50 of CDDP in combination with propargylglycine [2, 4] | effect on cell growth [3] | effect on cell growth ([3]; listed as PPG) | effect on cell growth [1] | effect on cell growth ([1]; listed as PPG) | effect on cell growth [2] | effect on cell growth ([2]; listed as PPG) |
| --- | --- | --- | --- | --- | --- | --- | --- | --- |
| [NH2][Pt]([NH2])([Cl])[Cl] [CDDP, Cysplatin] | significantly decreased | significantly decreased | – | – | – | – | – | – |
| C#CCC(N)C(=O)O (centres unmarked) [Propargylglycine] | – | – | no effect | did not affect cell growth | no effect | did not affect cell growth | no effect | did not affect cell growth |
